# From patent publication US10039781B2, “Pulse inhalation of nitric oxide for treating respiratory diseases” (Advanced Inhalation Therapies (AIT) Ltd., priority 2015, dated 2018)
# Where two headings read alike, the source gives them in different places.
# What was measured:
# Serracia sp. = settings: 200 ppm gNO until substantially eradicated; cited from earlier work
# microorganisms = assay: In vitro exposure to 200 ppm gNO, average over all microorganisms of Table 1; type: cell-based; settings: average of the 15 microorganisms
# Description: In vitro studies of the antimicrobial and antiviral effect of gNO have shown that the viability and vitality of viruses, bacteria and fungi decreases to a point of substantial eradication after the pathogen has been exposed to a certain amount of nitric oxide over a certain period of time. This amount, which can be referred to as the effective amount, can be estimated in terms of the concentration of NO in the gas mixture contacted with the pathogen, times the duration of the exposure. For example, the effective amount can be estimated in units of ppm-time-hour, or ppm-hour. Table 1 presents experimental data gathered for microorganisms exposed to 200 ppm gNO until the microorganisms are substantially eradicated*.
# [1] = tested on: bovine respiratory disease; settings: intermittent 30 minute exposures of gNO, cattle; cited from earlier work
# P. aeruginosa (ATCC) = settings: 200 ppm gNO until substantially eradicated; cited from earlier work
# [2] = cited from earlier work
# Candida albicans = settings: 200 ppm gNO until substantially eradicated; cited from earlier work
# MRSA = settings: 200 ppm gNO until substantially eradicated; cited from earlier work
# S. maltophilia = settings: 200 ppm gNO until substantially eradicated; cited from earlier work
# [3] = rats, cited from earlier work
# [4] = tested on: five planktonic species of methicillin resistant S. aureous (MRSA); settings: exposure to 1,600 ppm hours of gNO; cited from earlier work
# MRSA biofilm = settings: 200 ppm gNO for eight hours (1,600 ppm hours); cited from earlier work
# [5] = Prospective phase I open label safety study of inhaled 160 ppm gNO in healthy adults; type: in vivo, human; settings: 160 ppm gNO for 30 minutes, five times a day
# Enterobacter sp. = settings: 200 ppm gNO until substantially eradicated; cited from earlier work
# S. aureus (Clinical) = settings: 200 ppm gNO until substantially eradicated; cited from earlier work
# Acinetobader sp. = settings: 200 ppm gNO until substantially eradicated; cited from earlier work
# Klebsiella sp. #3 = settings: 200 ppm gNO until substantially eradicated; cited from earlier work
# Klebsiella sp.#2 = settings: 200 ppm gNO until substantially eradicated; cited from earlier work
# [6] = healthy humans, cited from earlier work
# E. coli = settings: 200 ppm gNO until substantially eradicated; cited from earlier work
# [7] = tested on: chronic, non-healing wound; settings: topical 200 ppm gNO, cited from earlier work
# S. aureus (ATCC) = settings: 200 ppm gNO until substantially eradicated; cited from earlier work
# [8] = rats, gNO concentrations below 200 ppm, 6 hours/day for 28 days; cited from earlier work
# Mycobacterium smegmatis = settings: 200 ppm gNO until substantially eradicated; cited from earlier work
# Klebsiella sp. #1 = settings: 200 ppm gNO until substantially eradicated; cited from earlier work
# Group B Streptococci = settings: 200 ppm gNO until substantially eradicated; cited from earlier work
# [9] = tested on: Pseudomonas aeruginosa pneumonia; settings: 160 ppm gNO, intermittent 30 minute exposures, rat; cited from earlier work
# [10] = 400 ppm gNO, first day of exposure
# [11] = 500 ppm gNO, first day of exposure
# [12] = five consecutive days, healthy adults
smiles,measurement,setting,value
"[N]=O [gNO, nitric oxide]",Effective amount in ppm-hour,Serracia sp.,1200 ppm-hour
same,"Effective amount in ppm-hour, Average",microorganisms,1013.33 ppm-hour
same,clinical symptoms of bovine respiratory disease,[1],shown to decrease the clinical symptoms
same,Effective amount in ppm-hour,P. aeruginosa (ATCC),600 ppm-hour
same,half-life in the body,[2]; in vivo,less than 6 seconds
same,radius of action from its site of origin,[2]; in vivo,approximately 200 microns
same,"nitrate excreted in the urine, share of the nitric oxide dose inhaled",[2]; predominant metabolite nitrate,more than 70%
same,Effective amount in ppm-hour,Candida albicans,800 ppm-hour
same,Effective amount in ppm-hour,MRSA,1000 ppm-hour
same,Effective amount in ppm-hour,S. maltophilia,800 ppm-hour
same,mortality,"[3]; 300 ppm gNO, groups of 10 rats",Six of the animals treated with 300 ppm gNO died during the first 1-2 days
same,MetHb levels,[3]; [10],72.5 percents
same,mortality,[3]; [10],all of the animals died
same,MetHb levels,[3]; [11],67 percents
same,mortality,[3]; [11],all of the animals died
same,population of MRSA planktonic strains,[4],A reduction in the population of all five MRSA planktonic strains was observed
same,MRSA in biofilm,MRSA biofilm,shown to reduce MRSA
same,Forced expiratory volume in 1 sec (FEV1) percentage and other lung function parameters,[5]; [12],improved
same,adverse events,[5]; [12],neither significant adverse events nor adverse events attributable to gNO inhalation occurred
same,methemoglobin levels,[5]; [12],0.9%
same,tolerability,[5]; [12],all individuals tolerated the gNO treatment courses well
same,"serum nitrites/nitrates, prothrombin, pro-inflammatory cytokine and chemokine levels",[5]; baseline versus day 5,did not differ between baseline and day 5
same,Effective amount in ppm-hour,Enterobacter sp.,1200 ppm-hour
same,Effective amount in ppm-hour,S. aureus (Clinical),800 ppm-hour
same,Effective amount in ppm-hour,Acinetobader sp.,1200 ppm-hour
same,Effective amount in ppm-hour,Klebsiella sp. #3,1200 ppm-hour
same,Effective amount in ppm-hour,Klebsiella sp.#2,1000 ppm-hour
same,levels of MetHb,[6]; inhalation of gNO at 128 ppm for 3 hours,> 5%
same,levels of MetHb,[6]; inhalation of gNO at 512 ppm for 55 minutes,> 5%
same,Effective amount in ppm-hour,E. coli,1000 ppm-hour
same,wound size reduction,[7]; at one week,42%
same,presence of biofilm,[7]; within the first three days of treatment,no longer visibly present
same,Effective amount in ppm-hour,S. aureus (ATCC),800 ppm-hour
same,mortality,[8],No deaths occurred
same,Effective amount in ppm-hour,Mycobacterium smegmatis,2000 ppm-hour
same,Effective amount in ppm-hour,Klebsiella sp. #1,1200 ppm-hour
same,Effective amount in ppm-hour,Group B Streptococci,400 ppm-hour
same,pulmonary bioburden and leukocyte infiltration,[9],effective to reduce the pulmonary bioburden and leukocyte infiltration
